Results on 33 compounds are retold here after patent publication US9204653B2, “5-fluoro pyrimidine derivatives” (DOW AGROSCIENCES LLC, priority 2008, dated 2015).

Where two headings read alike, the source gives them in different places.

The subject of the experiment is Mycosphaerella graminicola; Anamorph: Septoria tritici; Bayer Code SEPTTR. As to the kind of experiment: Leaf blotch of wheat, foliar fungicide treatment, one day protectant (1DP) or three day curative (3DC). Particulars: Zymoseptoria tritici, percent disease control rating. Type of experiment: in vivo, Septoria tritici on wheat plants (variety Yuma).
[1] abbreviates: 24 h, one day protectant (1DP), read-out: SETTTR 1DP 25 ppm.
Setting [2] is: 24 h, one day protectant (1DP), read-out: SEPTTR 1DP 100 ppm.
Where [3] appears, read: 72 h, three day curative (3DC), read-out: SEPTTR 3DC 25 ppm.
Where [4] appears, read: 72 h, three day curative (3DC), read-out: SEPTTR 3DC 100 ppm.

On to `CCCNC(=S)Nc1nc(OCc2ccc(F)cc2)ncc1F` [Compound 37], for which the pest or weed control at 25 ppm lay within 76 to 100% under setting [1] and 76 to 100% under setting [3]. For the same compound, the pest or weed control at 100 ppm is, setting by setting: under setting [2], 76 to 100%; under setting [4], 76 to 100%.
Take `Cc1ccc(COc2ncc(F)c(NS(C)(=O)=O)n2)cc1` [Compound 38, N-[5-Fluoro-2-(4-methylbenzyloxy)pyrimidin-4-yl]methanesulfonamide]: the pest or weed control at 25 ppm by setting is: under setting [1], 26 to 50%; under setting [3], 0 to 25%. Also, the pest or weed control at 100 ppm is, setting by setting: under setting [2], 26 to 50%; under setting [4], 26 to 50%.
On to `O=[N+]([O-])c1ccccc1SNc1nc(OCc2ccc(F)cc2)ncc1F` [Compound 39, N-[5-Fluoro-2-(4-fluorobenzyloxy)-pyrimidin-4-yl]-S-(2-nitrophenyl)-thiohydroxylamine], for which the pest or weed control at 25 ppm by setting is: under setting [1], 76 to 100%; under setting [3], 0 to 25%. Besides, the pest or weed control at 100 ppm is, setting by setting: under setting [2], 76 to 100%; under setting [4], 0 to 25%.
Regarding `COc1cccc(COc2ncc(F)c(NS(N)(=O)=O)n2)c1` [Compound 43, [5-Fluoro-2-(3-methoxybenzyloxy)pyrimidin-4-yl]sulfamide], the pest or weed control at 25 ppm under setting [1] fell in the range of 26 to 50% and the pest or weed control at 25 ppm under setting [3] fell in the range of 51 to 75%. Further, the pest or weed control at 100 ppm by setting is: under setting [2], 51 to 75%; under setting [4], 51 to 75%.
For `COc1cccc(COc2ncc(F)c(NN)n2)c1` [Compound 44, 5-Fluoro-4-hydrazinyl-2-(3-methoxybenzyloxy)pyrimidine], the pest or weed control at 25 ppm was 0 to 25% under setting [1] and 51 to 75% under setting [3]. In addition, the pest or weed control at 100 ppm reads like this: under setting [2], 76 to 100%; under setting [4], 76 to 100%.
`COc1cccc(COc2ncc(F)c(N/N=C/c3cccs3)n2)c1` [Compound 45, (E)-5-Fluoro-2-(3-methoxybenzyloxy)-4-(2-(thiophen-2-ylmethylene)-hydrazinyl)pyrimidine]: the pest or weed control at 25 ppm under setting [1] fell in the range of 51 to 75% and the pest or weed control at 25 ppm under setting [3] lay within 26 to 50%. For the same compound, the pest or weed control at 100 ppm under setting [2] fell in the range of 76 to 100% and the pest or weed control at 100 ppm under setting [4] lay within 26 to 50%.
Take `CCCNC(=S)Nc1nc(OCc2ccc(C)cc2)ncc1F` [Compound 48]: the pest or weed control at 25 ppm reads like this: under setting [1], 76 to 100%; under setting [3], 76 to 100%. Further, the pest or weed control at 100 ppm was 76 to 100% under setting [2] and 76 to 100% under setting [4].
Turning to `CN(Oc1ncc(F)c(N)n1)C(=O)OC(C)(C)C` [Compound 50, O-(4-Amino-5-fluoropyrimidin-2-yl)-t-butyl N-methyl-N-hydroxycarbamate], the pest or weed control at 25 ppm is, setting by setting: under setting [1], 26 to 50%; under setting [3], 26 to 50%. The pest or weed control at 100 ppm runs as follows: under setting [2], 76 to 100%; under setting [4], 76 to 100%.
Turning to `CC(=O)Nc1nc(OCc2ccc(F)cc2)ncc1F` [Compound 52], the pest or weed control at 25 ppm is 76 to 100% under setting [1] and 51 to 75% under setting [3]. For the same compound, the pest or weed control at 100 ppm runs as follows: under setting [2], 76 to 100%; under setting [4], 51 to 75%.
Regarding `CC(=S)Nc1nc(OCc2ccc(F)cc2)ncc1F` [Compound 53, N-(5-Fluoro-2-(4-fluorobenzyloxy)pyrimidin-4-yl)ethanethioamide], the pest or weed control at 25 ppm is, setting by setting: under setting [1], 76 to 100%; under setting [3], 76 to 100%. The pest or weed control at 100 ppm is, setting by setting: under setting [2], 76 to 100%; under setting [4], 76 to 100%.
As to `COc1cccc(COc2ncc(F)c(NC(=S)NCc3ccccc3F)n2)c1` [Compound 54], the pest or weed control at 25 ppm is, setting by setting: under setting [1], 51 to 75%; under setting [3], 0 to 25%. The pest or weed control at 100 ppm reads like this: under setting [2], 76 to 100%; under setting [4], 0 to 25%.
With `Cn1ccc(COc2ncc(F)c(N)n2)n1` [Compound 55], the pest or weed control at 25 ppm reads like this: under setting [1], 76 to 100%; under setting [3], 76 to 100%. Also, the pest or weed control at 100 ppm was 76 to 100% under setting [2] and 76 to 100% under setting [4].
`CC(Oc1ncc(F)c(N)n1)c1ccc2ccccc2c1` (stereo not drawn) [Compound 57]: the pest or weed control at 25 ppm was 76 to 100% under setting [1] and 76 to 100% under setting [3]. In addition, the pest or weed control at 100 ppm was 76 to 100% under setting [2] and 76 to 100% under setting [4].
With `CN(C)/C=N/c1nc(OC(=O)c2ccccc2F)ncc1F` [Compound 58], the pest or weed control at 25 ppm by setting is: under setting [1], 76 to 100%; under setting [3], 76 to 100%. The pest or weed control at 100 ppm under setting [2] was 76 to 100% and the pest or weed control at 100 ppm under setting [4] was 76 to 100%.
Regarding `O=C(NCc1ccccc1)Nc1nc(OCc2ccc(F)cc2)ncc1F` [Compound 59], the pest or weed control at 25 ppm under setting [1] lay within 0 to 25% and the pest or weed control at 25 ppm under setting [3] fell in the range of 0 to 25%. Further, the pest or weed control at 100 ppm is, setting by setting: under setting [2], 0 to 25%; under setting [4], 26 to 50%.
Turning to `Nc1nc(OCc2ccc(F)c(C(F)(F)F)c2)ncc1F` [Compound 60], the pest or weed control at 25 ppm runs as follows: under setting [1], 76 to 100%; under setting [3], 76 to 100%. The pest or weed control at 100 ppm under setting [2] was 76 to 100% and the pest or weed control at 100 ppm under setting [4] fell in the range of 76 to 100%.
Take `Cn1ccc(COc2ncc(F)c(NC(=O)NCc3ccccc3F)n2)n1` [Compound 64]: the pest or weed control at 25 ppm is 0 to 25% under setting [1] and 0 to 25% under setting [3]. The pest or weed control at 100 ppm under setting [2] is 0 to 25% and the pest or weed control at 100 ppm under setting [4] lay in the range of 26 to 50%.
As to `COc1ccc(/C=N/Nc2nc(OCc3cccc(OC)c3)ncc2F)cc1` [Compound 65], the pest or weed control at 25 ppm was in the range of 26 to 50% under setting [1] and 26 to 50% under setting [3]. Further, the pest or weed control at 100 ppm fell in the range of 51 to 75% under setting [2] and 51 to 75% under setting [4].
Regarding `CCOc1cccc(COc2ncc(F)c(N)n2)c1` [Compound 66], the pest or weed control at 25 ppm fell in the range of 76 to 100% under setting [1] and 76 to 100% under setting [3]. In addition, the pest or weed control at 100 ppm is, setting by setting: under setting [2], 76 to 100%; under setting [4], 76 to 100%.
With `C[C@@H](Oc1ncc(F)c(N)n1)c1ccc(Br)cc1` [Compound 70], the pest or weed control at 25 ppm is, setting by setting: under setting [1], 26 to 50%; under setting [3], 26 to 50%. For the same compound, the pest or weed control at 100 ppm lay within 76 to 100% under setting [2] and 76 to 100% under setting [4].
As to `CCOC(=O)Nc1nc(OCc2ccccc2)ncc1F` [Compound 71], the pest or weed control at 25 ppm was 76 to 100% under setting [1] and 76 to 100% under setting [3]. The pest or weed control at 100 ppm by setting is: under setting [2], 76 to 100%; under setting [4], 76 to 100%.
Turning to `C/C(=N\Oc1ncc(F)c(N)n1)c1ccc(F)cc1` [Compound 72], the pest or weed control at 25 ppm runs as follows: under setting [1], 76 to 100%; under setting [3], 76 to 100%. Besides, the pest or weed control at 100 ppm runs as follows: under setting [2], 76 to 100%; under setting [4], 76 to 100%.
Turning to `N#Cc1ccc(COc2ncc(F)c(N)n2)cc1` [Compound 74], the pest or weed control at 25 ppm by setting is: under setting [1], 51 to 75%; under setting [3], 0 to 25%. For the same compound, the pest or weed control at 100 ppm was in the range of 76 to 100% under setting [2] and 0 to 25% under setting [4].
For the compound `COc1ccc(COc2ncc(F)c(NC(=S)NCc3ccccc3F)n2)cc1F` [Compound 75], the pest or weed control at 25 ppm is 26 to 50% under setting [1] and 76 to 100% under setting [3]. Moreover, the pest or weed control at 100 ppm is, setting by setting: under setting [2], 76 to 100%; under setting [4], 76 to 100%.
As to `Cn1c(COc2ncc(F)c(N)n2)cc2sccc21` [Compound 76], the pest or weed control at 25 ppm lay in the range of 26 to 50% under setting [1] and 26 to 50% under setting [3]. Further, the pest or weed control at 100 ppm is 26 to 50% under setting [2] and 26 to 50% under setting [4].
In the case of `COc1cccc(COc2ncc(F)c(NN3CCN(C)CC3)n2)c1` [Compound 77], the pest or weed control at 25 ppm is, setting by setting: under setting [1], 0 to 25%; under setting [3], 26 to 50%. For the same compound, the pest or weed control at 100 ppm runs as follows: under setting [2], 76 to 100%; under setting [4], 76 to 100%.
As for `Cc1cccc(COc2ncc(F)c(N)n2)n1` [Compound 78], the pest or weed control at 25 ppm was in the range of 76 to 100% under setting [1] and 76 to 100% under setting [3]. Further, the pest or weed control at 100 ppm under setting [2] was in the range of 76 to 100% and the pest or weed control at 100 ppm under setting [4] is 76 to 100%.
For `Cn1ccc(COc2ncc(F)c(NC(=O)Nc3ccccc3F)n2)n1` [Compound 81], the pest or weed control at 25 ppm fell in the range of 0 to 25% under setting [1] and 0 to 25% under setting [3]. The pest or weed control at 100 ppm under setting [2] was in the range of 0 to 25% and the pest or weed control at 100 ppm under setting [4] was in the range of 0 to 25%.
In the case of `CC(Oc1ncc(F)c(N)n1)c1cccc(Oc2ccccc2)n1` (stereo not drawn) [Compound 82], the pest or weed control at 25 ppm by setting is: under setting [1], 26 to 50%; under setting [3], 0 to 25%. The pest or weed control at 100 ppm runs as follows: under setting [2], 26 to 50%; under setting [4], 26 to 50%.
As to `CCCC(Oc1ncc(F)c(N)n1)c1ccc(F)cc1` (stereo not drawn) [Compound 83], the pest or weed control at 25 ppm was in the range of 76 to 100% under setting [1] and 76 to 100% under setting [3]. The pest or weed control at 100 ppm under setting [2] fell in the range of 76 to 100% and the pest or weed control at 100 ppm under setting [4] fell in the range of 76 to 100%.
Turning to `COc1cccc(COc2ncc(F)c(NSc3ccccc3[N+](=O)[O-])n2)c1` [Compound 85], the pest or weed control at 25 ppm under setting [1] is 26 to 50% and the pest or weed control at 25 ppm under setting [3] fell in the range of 76 to 100%. The pest or weed control at 100 ppm is, setting by setting: under setting [2], 76 to 100%; under setting [4], 76 to 100%.
Regarding `COc1ccccc1COc1ncc(F)c(NC(=O)Cc2ccccc2)n1` [Compound 86], the pest or weed control at 25 ppm runs as follows: under setting [1], 26 to 50%; under setting [3], 0 to 25%. The pest or weed control at 100 ppm under setting [2] was in the range of 51 to 75% and the pest or weed control at 100 ppm under setting [4] lay within 0 to 25%.
Consider `CC(Oc1ncc(F)c(NCO)n1)c1ccc(F)cc1` (stereo not drawn) [Compound 88], for which the pest or weed control at 25 ppm is, setting by setting: under setting [1], 26 to 50%; under setting [3], 26 to 50%. Also, the pest or weed control at 100 ppm was in the range of 76 to 100% under setting [2] and 76 to 100% under setting [4].
